Measured values reported in the NIST ThermoML archive (doi:10.1021/je0342825).

Assays:
[1] = 101.3 kPa, Liquid
[2] = xn = mol fraction of the nth substance listed; settings: 101.3 kPa, Liquid

CCOC(C)=O [ethyl acetate]
[1]
Settings	mass density [kg/m3]	speed of sound [m/s]	viscosity [mPa·s]
293.15 K	900.52	1163	0.452
298.15 K	894.43	1140	0.426
303.15 K	888.3	1118	0.403

O [water]
[1]
Settings	viscosity [mPa·s]
293.15 K	1.003
298.15 K	0.89
303.15 K	0.797

CO [methanol]
[1]
Settings	mass density [kg/m3]	speed of sound [m/s]	viscosity [mPa·s]
293.15 K	791.9	1121	0.585
298.15 K	787.2	1104	0.545
303.15 K	782.48	1088	0.508

COC(C)=O [methyl ethanoate]
[1]
Settings	mass density [kg/m3]	speed of sound [m/s]	viscosity [mPa·s]
293.15 K	933.56	1174	0.386
298.15 K	926.98	1151	0.367
303.15 K	920.34	1128	0.348

CC(=O)O [acetic acid]
[1]
Settings	mass density [kg/m3]	speed of sound [m/s]	viscosity [mPa·s]
293.15 K	1049.3	1149	1.211
298.15 K	1043.65	1132	1.115
303.15 K	1038	1115	1.034

CC(=O)O [acetic acid] + CCO
[2]
Settings	mass density, 293.15 K [kg/m3]	mass density, 298.15 K [kg/m3]	mass density, 303.15 K [kg/m3]	speed of sound, 293.15 K [m/s]	speed of sound, 298.15 K [m/s]	speed of sound, 303.15 K [m/s]	viscosity, 293.15 K [mPa·s]	viscosity, 298.15 K [mPa·s]	viscosity, 303.15 K [mPa·s]
x1 = 0.0493	803.5	799.15	794.78	1168	1151	1133	1.19	1.083	0.989
x1 = 0.1004	817.3	812.87	808.39	1173	1156	1139	1.195	1.089	0.994
x1 = 0.1992	844.8	840.2	835.58	1182	1165	1148	1.23	1.12	1.023
x1 = 0.2971	871.59	866.86	862.09	1190	1172	1155	1.276	1.162	1.06
x1 = 0.3962	898.37	893.5	888.6	1195	1177	1160	1.336	1.215	1.108
x1 = 0.4961	924.97	919.96	914.93	1197	1179	1162	1.383	1.258	1.152
x1 = 0.5981	951.75	946.59	941.42	1196	1178	1160	1.432	1.297	1.183
x1 = 0.7031	978.85	973.55	968.23	1192	1175	1157	1.444	1.31	1.198
x1 = 0.7973	1002.17	996.74	991.29	1184	1166	1149	1.419	1.291	1.181
x1 = 0.8979	1026.4	1020.84	1015.28	1171	1153	1136	1.338	1.225	1.126
x1 = 0.9515	1038.72	1033.11	1027.5	1161	1143	1126	1.275	1.172	1.084
x1 = 1	1049.3	1043.65	1038	1149	1132	1115	1.211	1.115	1.034

CCO [ethanol]
[1]
Settings	mass density [kg/m3]	speed of sound [m/s]	viscosity [mPa·s]
293.15 K	789.75	1162	1.187
298.15 K	785.46	1145	1.082
303.15 K	781.15	1128	0.987

CC(=O)O [acetic acid] + O
[2]
Settings	mass density, 293.15 K [kg/m3]	mass density, 298.15 K [kg/m3]	mass density, 303.15 K [kg/m3]	speed of sound, 293.15 K [m/s]	speed of sound, 298.15 K [m/s]	speed of sound, 303.15 K [m/s]	viscosity, 293.15 K [mPa·s]	viscosity, 298.15 K [mPa·s]	viscosity, 303.15 K [mPa·s]
x1 = 0.0503	1019.37	1017.24	1014.94	1528	1533	1537	1.304	1.151	1.023
x1 = 0.1009	1034.95	1032.04	1029.02	1537	1536	1535	1.578	1.385	1.226
x1 = 0.2018	1053.88	1050	1046.07	1509	1502	1494	2.031	1.777	1.571
x1 = 0.3006	1063.42	1058.83	1054.2	1465	1454	1443	2.355	2.053	1.809
x1 = 0.4015	1068.15	1063.42	1058.66	1418	1405	1392	2.559	2.232	1.965
x1 = 0.5012	1069.68	1064.77	1059.78	1373	1359	1344	2.652	2.316	2.046
x1 = 0.6005	1068.8	1063.48	1058.24	1329	1314	1299	2.627	2.3	2.029
x1 = 0.7004	1066.55	1061.22	1055.91	1286	1270	1254	2.417	2.129	1.89
x1 = 0.8017	1062.78	1057.34	1051.9	1243	1226	1210	2.077	1.85	1.656
x1 = 0.8996	1057.35	1051.8	1046.25	1199	1183	1166	1.666	1.503	1.367
x1 = 0.9523	1053.56	1047.96	1042.35	1175	1157	1140	1.416	1.294	1.19
x1 = 1	1049.3	1043.65	1038	1149	1132	1115	1.211	1.115	1.034

CC(=O)O [acetic acid] + COC(C)=O
[2], x1 = 1
Settings	mass density [kg/m3]	speed of sound [m/s]	viscosity [mPa·s]
293.15 K	1049.3	1149	1.211
298.15 K	1043.65	1132	1.115
303.15 K	1038	1115	1.034
